Active and inactive are the calls of the source. The calls are words filed in the database; no cut-off is given here.

Test [1] has as its target T1, Acid ceramidase (Homo sapiens) (UniProt Q13510).
T1 sequence (whole entry): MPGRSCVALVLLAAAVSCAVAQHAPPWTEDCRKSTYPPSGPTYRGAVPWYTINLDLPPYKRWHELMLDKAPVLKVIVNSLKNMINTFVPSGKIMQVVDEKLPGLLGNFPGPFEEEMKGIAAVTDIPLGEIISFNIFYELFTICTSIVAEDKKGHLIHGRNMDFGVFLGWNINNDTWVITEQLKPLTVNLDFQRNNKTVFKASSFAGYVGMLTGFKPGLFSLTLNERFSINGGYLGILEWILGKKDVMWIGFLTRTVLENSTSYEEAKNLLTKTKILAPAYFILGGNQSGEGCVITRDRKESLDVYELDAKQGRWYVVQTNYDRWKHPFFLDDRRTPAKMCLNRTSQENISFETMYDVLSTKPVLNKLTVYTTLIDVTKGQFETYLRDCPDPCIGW
Nature of the test: Inhibition of recombinant human aCDase expressed in Sf9 cells using fluorescently-labeled acyl-NBD-C12-ceramide as substrate at 80 uM after 8 hrs by fluorescence assay.

The target in test [2] is T2, Acid ceramidase (Homo sapiens, UniProt Q13510).
T2 sequence (Q13510 whole entry): T1 sequence (whole entry)
Nature of the test: Inhibition of aCDase.

The target in test [3] is T2, Acid ceramidase. Nature of the test: Inhibition of aCDase expressed in human HL60 cell extract. It counts as cell-free, HL-60.
Test [4] addresses Neutral ceramidase (Homo sapiens) (UniProt Q9NR71). In words: Inhibition of recombinant human nCDase expressed in Sf9 cells using fluorescently-labeled acyl-NBD-C12-ceramide as substrate at 80 uM after 2 hrs by fluorescence assay.
Test [5] shares this target. Nature of the test: Activity of recombinant human nCDase expressed in Sf9 cells at 300 uM after 2 hrs by fluorescence assay.

Sequence of Neutral ceramidase (Homo sapiens) (Q9NR71 whole entry): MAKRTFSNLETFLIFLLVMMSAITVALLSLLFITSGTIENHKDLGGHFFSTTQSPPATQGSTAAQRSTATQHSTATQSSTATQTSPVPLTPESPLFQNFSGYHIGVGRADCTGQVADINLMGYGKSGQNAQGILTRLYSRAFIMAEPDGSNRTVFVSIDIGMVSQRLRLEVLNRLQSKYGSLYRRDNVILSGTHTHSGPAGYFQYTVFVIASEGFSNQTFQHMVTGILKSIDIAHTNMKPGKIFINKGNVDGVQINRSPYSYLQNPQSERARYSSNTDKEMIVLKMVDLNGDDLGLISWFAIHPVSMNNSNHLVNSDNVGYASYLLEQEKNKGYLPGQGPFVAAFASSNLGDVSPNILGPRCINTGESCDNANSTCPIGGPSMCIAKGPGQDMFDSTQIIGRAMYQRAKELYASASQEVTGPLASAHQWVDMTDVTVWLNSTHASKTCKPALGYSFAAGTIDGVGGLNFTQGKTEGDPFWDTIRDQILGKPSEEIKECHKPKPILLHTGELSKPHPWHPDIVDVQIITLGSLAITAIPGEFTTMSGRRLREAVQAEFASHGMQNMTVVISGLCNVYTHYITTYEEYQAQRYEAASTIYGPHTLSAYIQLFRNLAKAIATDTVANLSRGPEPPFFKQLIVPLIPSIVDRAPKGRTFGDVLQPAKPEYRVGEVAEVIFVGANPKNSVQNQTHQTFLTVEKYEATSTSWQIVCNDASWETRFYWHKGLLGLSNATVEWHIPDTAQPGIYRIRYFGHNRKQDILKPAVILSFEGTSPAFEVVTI

As to `CCCCCCCCCCCCCC(=O)N[C@H](CO)[C@H](O)c1ccc([N+](=O)[O-])cc1`, the inhibition entry in test [1] is “Active”. The IC50 (in general, the concentration that gives 50% inhibition) against Acid ceramidase [2] was 10 µM.
Regarding `CCCCCCCCCCCCCC(=O)N[C@H](C)[C@@H](O)c1ccccc1`, the inhibition result in test [1] was “Active”. Inhibition against Acid ceramidase [3] was half-maximal at 1 µM (IC50).
As for `CCCCCCCCCCCCCC(=O)NCC(=O)c1ccc(C)cc1`, the inhibition entry in test [1] and in test [4] was “Active” throughout.
For the compound `CCCCCCCCCCCCCC(=O)NCC(=O)c1cccc(C)c1`, the inhibition result in test [1] and in test [4] was “Active” in each case.
In the case of `CCCCCCCCCCCCS(=O)(=O)N[C@H](C)[C@@H](O)c1ccccc1`, the inhibition entry in test [1] and in test [4] was “Active” throughout.
As for `CCCCCCCCCCCCS(=O)(=O)N[C@H](CO)[C@H](O)c1ccc([N+](=O)[O-])cc1`, the inhibition result in test [1] was “Active”.
As to `CCCCCCCCCCCCCC(=O)NCC(O)c1ccc(C(C)(C)C)cc1` (racemic), the inhibition result in test [1] is “Active”. In addition, the inhibition result in test [4] was “inactive”.
With `CCCCCCCCCCCCCC(=O)NCC(O)c1ccc(C)cc1` (racemic), the inhibition entry in test [1] and in test [4] was “Active” in each case. The result in test [5] was inactive.
As to `CCCCCCCCCCCCCC(=O)NCC(O)c1ccc(CC)cc1` (racemic), in test [1], the inhibition result is “Active”.
On to `CCCCCCCCCCCCCC(=O)NCC(O)c1ccc(CCC)cc1` (racemic), for which the inhibition result in test [1] was “Active”. In addition, the inhibition entry in test [4] is “inactive”.
`CCCCCCCCCCCCCC(=O)NCC(O)c1ccc(CCCC)cc1` (racemic): the inhibition result in test [1] is “inactive”.
For `CCCCCCCCCCCCCC(=O)NCC(O)c1ccc(O)cc1` (racemic), the inhibition result in test [1] is “Active”.
As to `CCCCCCCCCCCCCC(=O)NCC(O)c1ccc(OC)cc1` (racemic), the inhibition result in test [1] was “inactive”. The inhibition result in test [4] is “Active”.
For `CCCCCCCCCCCCCC(=O)NCC(O)c1cccc(C)c1` (racemic), in test [1], the inhibition entry was “Active”.
On the same count and under the same terms, the entry for `CCCCCCCCCCCCCC(=O)NCC(O)c1cccc(O)c1` (racemic) is “Active”.
On to `CCCCCCCCCCCCCC(=O)NCC(O)c1cccc(OC)c1` (racemic), for which the inhibition entry in test [1] was “inactive”. Moreover, the inhibition result in test [4] is “Active”.
As to `CCCCCCCCCCCCCC(=O)NCC(O)c1ccccc1` (racemic), the inhibition result in test [1] was “Active”.
As to `CCCCCCCCCCCCCC(=O)NCC(O)c1cccnc1` (racemic), the inhibition entry in test [1] and in test [4] was “Active” throughout.
As for `CCCCCCCCCCCCCC(=O)NCC(O)c1ccncc1` (racemic), the inhibition entry in test [1] and in test [4] was “Active” each time.
On to `CCCCCCCCCCCCS(=O)(=O)NCC(O)c1ccc(C)cc1` (racemic), for which the inhibition result in test [1] and in test [4] was “Active” each time. Further, the outcome in test [5] was inactive.
Turning to `CCCCCCCCCCCCS(=O)(=O)NCC(O)c1ccccc1` (racemic), the inhibition result in test [1] and in test [4] was “Active” in each case.
With `CCCCCCCCCCCCS(=O)(=O)NCC(O)c1cccnc1` (racemic), the inhibition result in test [1] and in test [4] was “Active” each time.
On to `CCCCCCCCCCCCS(=O)(=O)NCC(O)c1ccncc1` (racemic), for which the inhibition result in test [1] and in test [4] was “Active” throughout.
On to `CCCCCCCCCCCCCC(=O)NCC(O)c1ccc(C)cc1` (single isomer, unassigned; (-)), for which the inhibition entry in test [1] and in test [4] was “Active” throughout.
For `CCCCCCCCCCCCCC(=O)NCC(O)c1ccc(C)cc1` (stereo in doubt), the inhibition entry in test [1] and in test [4] was “Active” in each case.

For the origin of these results see ChEMBL document CHEMBL2151021, “Novel amide- and sulfonamide-based aromatic ethanolamines: effects of various substituents on the inhibition of acid and neutral ceramidases” (Bioorg Med Chem, 2012).
